Laboratory results reported in patent US12162848B2, “Inhibitors of protein tyrosine phosphatase, compositions, and methods of use” (BRISTOL-MYERS SQUIBB COMPANY, priority 2022, dated 2024).

Key:
[1] = target: T1, PTPN2 enzyme (Homo sapiens, UniProt P17706); assay: PhosphoSens PTPN2 biochemical assay; details: substrate AQT0264 20 μM, room temperature; read-out: PTPN2 BCHEM IC50
T1 sequence (P17706 1-415): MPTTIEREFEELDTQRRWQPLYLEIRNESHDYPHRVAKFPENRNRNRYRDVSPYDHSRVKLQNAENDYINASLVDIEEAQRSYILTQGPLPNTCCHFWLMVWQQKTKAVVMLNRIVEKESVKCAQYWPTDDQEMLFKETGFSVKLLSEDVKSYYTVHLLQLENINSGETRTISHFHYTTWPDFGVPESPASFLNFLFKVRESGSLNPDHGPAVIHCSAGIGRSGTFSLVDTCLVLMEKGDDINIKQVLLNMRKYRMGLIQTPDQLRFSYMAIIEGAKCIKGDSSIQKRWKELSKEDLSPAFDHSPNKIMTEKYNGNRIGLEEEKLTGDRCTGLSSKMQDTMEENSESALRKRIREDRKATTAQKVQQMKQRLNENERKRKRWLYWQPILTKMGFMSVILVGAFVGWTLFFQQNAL
Experimental: A PhosphoSens® kinase assay was performed as described by the vendor (AssayQuant Technologies, Marlborough, MA). Briefly, 1000×solutions of compounds were prepared in DMSO via serial dilution of the 10 mM DMSO stocks using 3-fold intervals in a 384-well reagent plate. 50 nL of the compound dilution series was then added to the corresponding wells of a 384-well assay plate. […] of 1.25×substrate (AQT0264) in 1× assay buffer (50 mM HEPES pH 7.5, 500 μM EGTA, […] MgCl2, 0.01% Brij-35, 1% Glycerol, 1 mM DTT, and 0.2 mg/mL BSA) was transferred to each well of the assay plate to achieve a final substrate concentration of 20 μM. Finally, […] of 5×PTPN2 enzyme stock was added to each well of the assay plate for a final enzyme concentration of […]. Reaction progress curves were collected by sampling fluorescence intensity at the excitation wavelength 360 nm (λex360) and emission wavelength 480 nm (λem480) every 71 seconds for one hour using a Synergy H4 plate reader (BioTek Instruments/Agilent Technologies, Winooski, VT) at room temperature.

[2] = system: B16-F10 cells; assay: Cell proliferation assay (CellTiter-Glo) in IFN-gamma treated B16-F10 cells; type: cell-based; details: 120 h, mouse IFN-gamma 10 ng/mL, read-out: PTPN2 Prolif 5d B16F10 EC50
Experimental: B16-F10 cells (ATCC, Manassas, VA, #CRL-6475) were cultured in DMEM growth medium (ThermoFisher Scientific, Waltham, MA, #11995-040) supplemented with 10% heat inactivated FBS (ThermoFisher Scientific, #16140-071) and 1% pen/strep (ThermoFisher Scientific, #15140-122). The cells were seeded into two white opaque 384-well tissue culture treated microplates (PerkinElmer, Waltham, MA, #6007688) at a density of 100 cells/well in 20 uL total volume and incubated overnight at 37 C and 5% CO2. 30 nL of compounds dissolved in DMSO were then transferred from a source plate into target wells with the Echo650 acoustic liquid handler (Beckman Coulter, Indianapolis, IN). Negative control wells received 30 nL of DMSO only (0.15% final concentration). Plates were returned to the incubator for 1 hour and then cells treated with either 5 uL of growth medium or 5 uL of growth medium containing 50 ng/mL of recombinant mouse IFN-gamma protein (R&D Systems, Minneapolis, MN, #485-MI/CF, 10 ng/mL final concentration) using the Assist automated pipetting platform (INTEGRA Biosciences, Hudson, NH). Plates were incubated at 37 C for 4 days and cell proliferation assayed with the CellTiter-Glo reagent (Promega, Madison, WI, #G7573, 25 uL per well). […] Off-target compound mediated cytotoxicity was identified by checking for growth inhibition in the absence of IFNg.

[3] = system: phosphorylated STAT1 protein levels in B16-F10 cells; assay: Phospho-STAT1 (Tyr701) HTRF assay in IFN-gamma treated B16-F10 cells; type: cell-based; details: mouse IFN-gamma 100 ng/mL, 1 hour, read-out: pSTAT1 HTRF B16 EC50
Experimental: B16-F10 cells (ATCC, Manassas, VA, #CRL-6475) were cultured in DMEM growth medium (ThermoFisher Scientific, Waltham, MA, #11995-040) supplemented with 10% heat inactivated FBS (ThermoFisher Scientific, #16140-071) and 1% pen/strep (ThermoFisher Scientific, #15140-122). The cells were seeded into a white opaque 384-well tissue culture treated microplate (PerkinElmer, Waltham, MA, #6007688) at a density of 10,000 cells/well in 20 uL total volume and incubated overnight at 37 C and 5% CO2. 30 nL of compounds dissolved in DMSO were then transferred from a source plate into target wells with the Echo650 acoustic liquid handler (Beckman Coulter, Indianapolis, IN). Negative control wells received 30 nL of DMSO only (0.15% final concentration). Plates were returned to the incubator for 1 hour and then cells treated with either 5 uL of growth medium or 5 uL of growth medium containing 500 ng/mL of recombinant mouse IFN-gamma protein (R&D Systems, Minneapolis, MN, #485-MI/CF, 100 ng/mL final concentration) using the Assist automated pipetting platform (INTEGRA Biosciences, Hudson, NH). Plates were incubated at 37 C for 1 hour and assayed for phosphorylated STAT1 protein levels with the phospho-STAT1 (Tyr701) HTRF kit (Cisbio, Bedford, MA, #63ADK026PEH) according to manufacturer's instructions.

Compound	IC50 [1] [µM]	EC50 [2] [µM]	EC50 [3] [µM]
CC(C)CCN1CCCC(c2cc(O)c(N3CC(=O)NS3(=O)=O)c(F)c2)C1 (stereo not shown) [EXAMPLE 5, 5-(2-fluoro-6-hydroxy-4-(1-isopentylpiperidin-3-yl)phenyl)-1,2,5-thiadiazolidin-3-one 1,1-dioxide]	1.02	≥ 15	≥ 15
O=C1CN(c2c(O)cc(-c3ccccn3)cc2F)S(=O)(=O)N1 [EXAMPLE 7, 5-(2-fluoro-6-hydroxy-4-(pyridin-2-yl)phenyl)-1,2,5-thiadiazolidin-3-one 1,1-dioxide]	0.568	≥ 15	≥ 15
O=C1CN(c2c(O)cc(CN[C@@H]3CCCN(S(=O)(=O)c4cccc(F)c4)C3)cc2F)S(=O)(=O)N1 [EXAMPLE 69, 5-[2-fluoro-4-[[[(3R)-1-(3-fluorophenyl)sulfonyl-3-piperidyl]amino]methyl]-6-hydroxy-phenyl]-1,1-dioxo-1,2,5-thiadiazolidin-3-one]	0.088		≥ 15
O=C1CN(c2c(O)cc(CN[C@H]3CCCN(S(=O)(=O)c4cccc(F)c4)C3)cc2F)S(=O)(=O)N1 [EXAMPLE 70, 5-[2-fluoro-4-[[[(3S)-1-(3-fluorophenyl)sulfonyl-3-piperidyl]amino]methyl]-6-hydroxy-phenyl]-1,1-dioxo-1,2,5-thiadiazolidin-3-one]	0.03		≥ 15
CCCN(Cc1cc(O)c(N2CC(=O)NS2(=O)=O)c(F)c1)CC1CCC1 [EXAMPLE 78, 5-[4-[[cyclobutylmethyl(propyl)amino]methyl]-2-fluoro-6-hydroxy-phenyl]-1,1-dioxo-1,2,5-thiadiazolidin-3-one]	0.806		≥ 15
N#Cc1ccc(Cl)c(NCc2cc(O)c(N3CC(=O)NS3(=O)=O)c(F)c2)c1 [EXAMPLE 81, 4-chloro-3-[[3-fluoro-5-hydroxy-4-(1,1,4-trioxo-1,2,5-thiadiazolidin-2-yl)phenyl]methylamino]benzonitrile]		≥ 15	≥ 15
O=C1CN(c2c(O)cc(CNc3cc(C4CC4)ccn3)cc2F)S(=O)(=O)N1 [EXAMPLE 82, 5-[4-[[(4-cyclopropyl-2-pyridyl)amino]methyl]-2-fluoro-6-hydroxy-phenyl]-1,1-dioxo-1,2,5-thiadiazolidin-3-one]	0.01		0.197
CC1(C)CCC(NCc2ccc(O)c(N3CC(=O)NS3(=O)=O)c2F)CC1 [EXAMPLE 97, 5-(3-(((4,4-dimethylcyclohexyl)amino)methyl)-2-fluoro-6-hydroxyphenyl)-1,2,5-thiadiazolidin-3-one 1,1-dioxide]		≥ 15	≥ 15
O=C1CN(c2c(O)ccc(CN3CCOCC3)c2F)S(=O)(=O)N1 [EXAMPLE 99, 5-(2-fluoro-6-hydroxy-3-(morpholinomethyl)phenyl)-1,2,5-thiadiazolidin-3-one 1,1-dioxide]		≥ 15	≥ 15
O=C1CN(c2c(O)ccc(CNC3CCCCC3)c2F)S(=O)(=O)N1 [EXAMPLE 100, 5-(3-((cyclohexylamino)methyl)-2-fluoro-6-hydroxyphenyl)-1,2,5-thiadiazolidin-3-one 1,1-dioxide]		≥ 15	≥ 15
O=C1CN(c2c(O)ccc(CNC3CCOCC3)c2F)S(=O)(=O)N1 [EXAMPLE 101, 5-(2-fluoro-6-hydroxy-3-(((tetrahydro-2H-pyran-4-yl)amino)methyl)phenyl)-1,2,5-thiadiazolidin-3-one 1,1-dioxide]		≥ 15	≥ 15
CN1CCN(Cc2ccc(O)c(N3CC(=O)NS3(=O)=O)c2F)CC1 [EXAMPLE 103, 5-(2-fluoro-6-hydroxy-3-((4-methylpiperazin-1-yl)methyl)phenyl)-1,2,5-thiadiazolidin-3-one 1,1-dioxide]		≥ 15	≥ 15
O=C1CN(c2c(O)ccc(C3CCNCC3)c2F)S(=O)(=O)N1 [EXAMPLE 105, 5-(2-fluoro-6-hydroxy-3-(piperidin-4-yl)phenyl)-1,2,5-thiadiazolidin-3-one 1,1-dioxide]		≥ 15	≥ 15

The next lines start with the values.

IC50 [1] [µM]	EC50 [2] [µM]	EC50 [3] [µM]	Compound
0.119	0.882	1.28	O=C1CN(c2c(O)cc(C3CCCNC3)cc2F)S(=O)(=O)N1 (stereo not shown) [EXAMPLE 1, 5-(2-fluoro-6-hydroxy-4-(piperidin-3-yl)phenyl)-1,2,5-thiadiazolidin-3-one 1,1-dioxide]
0.807	≥ 15	≥ 15	CN1CCC(c2cc(O)c(N3CC(=O)NS3(=O)=O)c(F)c2)CC1 [EXAMPLE 4, 5-[2-fluoro-6-hydroxy-4-(1-methyl-4-piperidyl)phenyl]-1,1-dioxo-1,2,5-thiadiazolidin-3-one]
0.032		6.68	CC(=O)N1CCC[C@@H](NCc2cc(O)c(N3CC(=O)NS3(=O)=O)c(F)c2)C1 [EXAMPLE 68, 5-[4-[[[(3R)-1-acetyl-3-piperidyl]amino]methyl]-2-fluoro-6-hydroxy-phenyl]-1,1-dioxo-1,2,5-thiadiazolidin-3-one]
	≥ 15	≥ 15	CN(C)CCNC(=O)c1cc(O)c(N2CC(=O)NS2(=O)=O)c(F)c1 [EXAMPLE 91, N-(2-(dimethylamino)ethyl)-4-(1,1-dioxido-4-oxo-1,2,5-thiadiazolidin-2-yl)-3-fluoro-5-hydroxybenzamide]
	≥ 15	≥ 15	O=C1CN(c2c(O)cc(C(=O)NC3CCNCC3)cc2F)S(=O)(=O)N1 [EXAMPLE 92, 4-(1,1-dioxido-4-oxo-1,2,5-thiadiazolidin-2-yl)-3-fluoro-5-hydroxy-N-(piperidin-4-yl)benzamide]
	≥ 15	≥ 15	O=C1CN(c2c(O)cc(C(=O)N[C@H]3CCCNC3)cc2F)S(=O)(=O)N1 [EXAMPLE 93, (S)-4-(1,1-dioxido-4-oxo-1,2,5-thiadiazolidin-2-yl)-3-fluoro-5-hydroxy-N-(piperidin-3-yl)benzamide]
	≥ 15	≥ 15	O=C1CN(c2c(O)cc(C(=O)N[C@@H]3CCCNC3)cc2F)S(=O)(=O)N1 [EXAMPLE 94, (R)-4-(1,1-dioxido-4-oxo-1,2,5-thiadiazolidin-2-yl)-3-fluoro-5-hydroxy-N-(piperidin-3-yl)benzamide]
	≥ 15	≥ 15	CN(C)[C@H]1CC[C@H](NC(=O)c2cc(O)c(N3CC(=O)NS3(=O)=O)c(F)c2)CC1 [EXAMPLE 96, N-((1r,4r)-4-(dimethylamino)cyclohexyl)-4-(1,1-dioxido-4-oxo-1,2,5-thiadiazolidin-2-yl)-3-fluoro-5-hydroxybenzamide]
